Source: publication PMC5640672, “Molecular mechanism of synergy between the antimicrobial peptides PGLa and magainin 2” (Scientific Reports, 2017)
No end group written: not given here.

Columns and labels:
[1] = Fluorescence ANTS/DPX vesicle leakage assay in POPE/POPG/TOCL (72:23:5); conditions: POPE/POPG/TOCL (72:23:5) 100 nm vesicles, P/L ≈ 1:30, mixtures 1:1, 10 mM HEPES pH 7.5, 155 mM NaCl, 30 °C, 600 s, % of Triton-X-100 leakage, mean of n = 3
Text: It could be argued that POPC/POPG (3:1) is not the most appropriate model system to describe a bacterial membrane, which rarely contains PC lipids. We therefore also performed leakage in another lipid system, POPE/POPG/TOCL (72:23:5), which is a good model of E. coli membranes[45],[69],[70]. […] For all of the other mutants discussed below, leakage was also studied both in POPC/POPG as well as POPE/POPG/TOCL, but since the results (synergy or no synergy) were in all cases the same, the latter data will not be presented in the text. All leakage data in POPE/POPG/TOCL (72:23:5) for charge mutants are summarized in Supplementary Table S4.
Leakage of small unilamellar vesicles induced by the peptides was studied using a standard fluorescence assay.
The appropriate lipids for each experiment were dissolved in CHCl3, together with 0.02 mol-% Rhodamine-PE (Rh-PE). […] This stock suspension was subjected to 10 freeze-thaw cycles and then frozen. Appropriate aliquots of the stock lipid suspension were unfrozen each day and extruded (41 times) through polycarbonate membranes with 100 nm pore size, and stored at room temperature overnight. The fluorophore and quencher outside the vesicles were removed by size exclusion chromatography using spin-columns (Pierce centrifuge column, 2 ml, Life Technologies GmbH, Darmstadt, Germany) filled with Sephacryl 100-HR (2 min, 1500 × g). For elution, a 10 mM HEPES buffer (pH 7.5) was used, containing 155 mM NaCl to balance the osmolarity. After extrusion and removal of the external dye and quencher, the lipid concentration usually decreases. Therefore, before each set of measurements a rhodamine spectrum was recorded to determine the actual concentration of lipids, which was referenced to a spectrum taken of vesicles made by sonification without any subsequent treatment.
Fluorescence experiments were performed on a FluoroMax2 spectrofluorimeter (HORIBA Jobin Yvon, Unterhaching, Germany) equipped with a thermostated sample holder and magnetic stirrer, using an excitation wavelength of 355 nm, an emission wavelength of 508 nm, and slit widths of 5 nm. The peptide solutions were placed in elution buffer in a 1 cm standard cuvette at 30 °C. 100 s after the start of the measurement lipid vesicles were added, and the intensity of the fluorescence at 508 nm was recorded. The leakage was measured during 600 s after addition of vesicles, and the measurement was terminated after addition of Triton-X-100 (0.25% v/v), which dissolved the vesicles, and yielded 100% leakage. To determine the background signal of the vesicles themselves, several blanks were recorded per measurement set. From the leakage values of the peptides alone and of the mixture of two peptides a synergy factor SF was calculated:3 SF=L(A+B)/[L(A)+L(B)] Here, L(A) is the leakage found with peptide A alone, L(B) is the leakage found with peptide B alone, and L(A + B) is the leakage found with the mixture of peptides A and B. In all cases the P/L was the same for both peptides, alone and in the mixture, so that in the mixture the total P/L was twice that of the individual peptide measurements. […] Measurements were repeated three times and average values and standard deviations calculated for the leakage and the synergy factors. An average SF ≥ 2 was taken to indicate synergy.

[2] = test system: S. aureus DSM 1104; assay: Checker-board assay (FICI); assay type: cell-based, Staphylococcus aureus; conditions: for FICI in combination with MAG2-WT: below 0.5 = synergistic activity
Method: A suitable method to study synergistic antimicrobial activity is the so-called checker-board assay, described in the Methods section. We performed such experiments on one Gram-negative bacterium, E. coli, and one Gram-positive one, S. aureus. From this method a fractional inhibitory concentration index (FICI) is determined, and when this is below 0.5, the peptides are said to have a synergistic effect against bacteria. This is the biologically relevant effect, but we are here interested in the atomistic details of the interactions behind the effect. Therefore we also use biophysical methods.
The antimicrobial activity of the peptides was investigated with a standard MIC assay[87],[88] on one Gram positive (Staphylococcus aureus, DSM 1104, ATCC 25923) and one Gram negative bacterial strain (Escherichia coli, DSM 1103, ATCC 25922). Bacteria were grown in Müller-Hinton medium (MH) at 37 °C and 220 rpm. Overnight cultures were inoculated from a single colony and grown for approximately 16 h. Day cultures were grown for approximately 3 h until they reached the exponential growth phase. These suspensions were diluted with MH-medium to a concentration of 10^6 colony-forming units (CFU) per ml. The microtiter plates (96 wells of 100 µL) were filled with 50 µL of MH, and serial 2-fold dilutions of each peptide were arranged in triplets along the columns. […] Two columns were filled with medium only, to serve as a positive control (bacteria), and as a negative control (no bacteria) to check for contamination of the medium. The bacterial suspension was added in 50 µL aliquots to each well, except for the negative control, to reach a final concentration of 5 × 10^5 CFU/ml. The plates were incubated for 22 h at 37 °C. To each well 20 µL of 0.2 mg/ml Resazurin solution was added and incubated for another two hours. The MIC value was determined visually, as the lowest peptide concentration which inhibited bacterial growth in at least two out of three columns.
To visualize synergy between different peptides, a two-dimensional dilution assay was used[89],[90]. The same bacterial strains were used as in the MIC assay. The procedure of preparing the bacterial suspensions was analogous to the MIC assay, but with a higher final concentration because the volumes in the two setups are different. The main plate (MP) was filled with 40 µl of MH, and serial 2-fold dilutions of the peptide were arranged in each row (8 rows × 7 columns). As described above, the first column was filled with doubly concentrated medium. On another plate (HP, help plate) a second peptide dilution assay was performed, but orthogonal to the main plate. The last row was left empty (7 rows × 8 columns). 40 µL of each well of the HP were transferred to each well of the MP (A1 → A1, etc.). Two columns were filled with medium only, to serve as a positive control (bacteria), and as a negative control (no bacteria) to check for contamination of the medium. The bacterial suspension was added in 20 µL aliquots to each well, except for the negative control, to reach a final concentration of 5 × 10^5 CFU/ml. The plates were incubated for 22 h at 37 °C. To each well 20 µL of 0.1 mg/ml Resazurin solution was added and incubated for another two hours. From these plates, it is possible to determine the MIC value for each of the two peptides, as well as the inhibitory values of the mixtures with 7 × 7 different peptide ratios. From these values, fractional inhibitory concentration indices (FICIs) were calculated with the following formula[89],[91]:1 FICI=[MIC(A)^comb/MIC(A)^alone]+[MIC(B)^comb/MIC(B)^alone] In this formula, MIC(A)^alone is the MIC value determined for peptide A alone, and MIC(A)^comb is the concentration of peptide A at the MIC determined for the combination. The same holds for peptide B. FICI values below 0.5 are taken to indicate a clear synergistic effect, values between 0.5 and 2 an additive effect, and values above 2 an antagonistic effect[89],[92].

[3] = Table S4 series (charge mutants)
[4] = Table S8 series (PGLa-to-MSI mutants)

Substance | Leakage, mean value [1, 3] | FICI in combination with PGLa-WT [2] | Leakage, mean value [1, 4] | FICI in combination with MAG2-WT [2] | Leakage, mean value ([1]; Table S12 series (MSI-to-PGLa mutants))
GIGKFLHSAKKFGKAFVGKIMNS-NH 2 (GIGKFLHSAKKFGKAFVGKIMNS-NH2) [MAG2-E19K-amide, amidated MAG2 E19K mutant] | 2.9% | above 0.5 |  |  | 
GIGKFLHSAKKFGKAFVGKIMNS-OH [MAG2-E19K, MAG2 charge mutant E19K] | 1.6% | above 0.5 |  |  | 
GMASKAGAIAGKIAKIAGKIA-NH2 [PtM-c1, PGLa to MSI-103 mutant, segment C replaced] |  |  | 1.5% | below 0.5 | 
GMASKAGKIAGKIAKVALKAL-NH2 (also: 15N-labeled Ala10) [PtM-A8K, PGLa single mutant A8K] |  |  | 7.1% | below 0.5 | 
GMASKIGAIAGKIAKVALKAL-NH2 (also: 15N-labeled Ala10) [PtM-A6I, PGLa single mutant A6I] |  |  | 3.7% | below 0.5 | 
KIAGKAGAIAGKIAKVALKAL-NH2 [PtM-a2, PGLa to MSI-103 mutant, three amino acids converted] |  |  | 4.5% | below 0.5 | 
KIAGKIGKIAGKIAKIAGKIA-NH2 [MtP-A7G, MSI-103 to PGLa single mutant A7G] |  |  |  | below 0.5 | 5.1%
